Assays:
[1] = biological target: T1, limbic D2 (dopamine) receptor (Rattus norvegicus, UniProt P61169); test: inhibition of ^3 H-spiroperidol binding to limbic brain tissue (D2 receptor affinity); settings: 1 μM test compound, read-out: % Inhibition at 1 μM (Affinity for D2 Receptor Sites)
T1 construct: from tissue
Method: The compounds of this invention are antidepressant, anxiolytic agents useful in the treatment of depression and/or anxiety as a singular, primary mental problem as well as secondary, attending problems such as sexual dysfunction. […] The D2 receptor affinity of the compounds of this invention was determined by a modification of the test procedure of Fields et al., Brain Res. 136, 578 (1977) and Yamamura et al., eds., Neurotransmitter Receptor Binding, Raven Press, N.Y. (1978) as discussed in U.S. Pat. No. 4,636,563. The percentage reduction of ^3 H-spiroperidol binding at 1 μM concentration of test compound is reported, infra.

[2] = biological target: T2, 5-HT1A serotonin receptor subtype (Rattus norvegicus, UniProt P19327); test: displacement of ^3 H-8-OH DPAT from the 5-HT1A serotonin receptor subtype (Hall et al.); assay type: binding; settings: for inhibition at 1 µM: 1 μM test compound, read-out: % Inhibition at 1 μM (Affinity for 5-HT1A Receptor Sites); for Ki: calculated from IC50 values, read-out: Ki (Affinity for 5-HT1A Receptor Sites)
T2 construct: from tissue
T2 sequence (P19327 1-422): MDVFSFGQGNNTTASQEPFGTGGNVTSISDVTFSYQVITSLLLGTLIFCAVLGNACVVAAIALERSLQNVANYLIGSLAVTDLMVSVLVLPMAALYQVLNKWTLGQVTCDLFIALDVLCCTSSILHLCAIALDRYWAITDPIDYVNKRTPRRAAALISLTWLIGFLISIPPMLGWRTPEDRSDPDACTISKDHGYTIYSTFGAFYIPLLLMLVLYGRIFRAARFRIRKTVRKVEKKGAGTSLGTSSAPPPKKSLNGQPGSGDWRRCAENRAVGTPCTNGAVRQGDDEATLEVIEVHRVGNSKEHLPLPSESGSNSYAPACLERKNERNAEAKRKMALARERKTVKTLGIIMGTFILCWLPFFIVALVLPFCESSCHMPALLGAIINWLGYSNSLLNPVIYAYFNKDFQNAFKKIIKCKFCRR
Excerpt: The serotoninergic properties of the compounds of this invention were established by the procedure of Hall et al., J. Neurochem.

[3] = literature; cited from earlier work

T1 sequence (P61169 whole entry): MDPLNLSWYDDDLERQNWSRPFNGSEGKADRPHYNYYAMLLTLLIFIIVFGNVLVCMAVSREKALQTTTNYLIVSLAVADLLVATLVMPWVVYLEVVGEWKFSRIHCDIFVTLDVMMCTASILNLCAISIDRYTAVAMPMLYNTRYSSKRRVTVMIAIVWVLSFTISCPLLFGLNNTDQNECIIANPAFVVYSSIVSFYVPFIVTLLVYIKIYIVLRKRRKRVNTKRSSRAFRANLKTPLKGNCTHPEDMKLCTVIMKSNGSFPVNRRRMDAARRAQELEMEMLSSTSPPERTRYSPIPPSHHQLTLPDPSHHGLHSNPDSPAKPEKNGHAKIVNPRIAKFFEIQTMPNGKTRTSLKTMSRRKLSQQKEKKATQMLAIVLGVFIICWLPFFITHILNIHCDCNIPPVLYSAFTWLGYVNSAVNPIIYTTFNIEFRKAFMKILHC

Row | inhibition at 1 µM [1] [%] | inhibition at 1 µM [2] [%] | Ki [2] [µM] | inhibition at 0.1 µM ([2]; 100 nM test compound, read-out: % Inhibition at 100 nM (Affinity for 5-HT1A Receptor Sites)) [%] | Structure (SMILES) | clinical efficacy as anxiolytic-antidepressant agents (in words) [3]
1 | 38 | 95 | 0.045 | – | O=C(NCCCN1CCN(c2cccc(Cl)c2)CC1)NC12CC3CC(CC(C3)C1)C2 [Example 6, N-[3-[4-(3-chlorophenyl)-1-piperazinyl]propyl]-N'-tricyclo[3.3.1.1(3,7)]dec-1-ylurea] | –
2 | 66 | 100 | – | – | COc1ccccc1N1CCN(CCCNC(=O)NC23CC4CC(CC(C4)C2)C3)CC1 [Example 5, N-[3-[4-(2-methoxyphenyl)-1-piperazinyl]propyl]-N'-tricyclo[3.3.1.1(3,7)]dec-1-ylurea] | –

The remaining lines, values behind:

Row | Structure (SMILES) | inhibition at 1 µM [1] [%] | inhibition at 1 µM [2] [%] | Ki [2] [µM] | inhibition at 0.1 µM ([2]; 100 nM test compound, read-out: % Inhibition at 100 nM (Affinity for 5-HT1A Receptor Sites)) [%] | clinical efficacy as anxiolytic-antidepressant agents (in words) [3]
3 | O=C(NCCCN1CCN(c2ncccn2)CC1)NC12CC3CC(CC(C3)C1)C2 [Example 4, N-[3[4-(2-pyrimidyl)-1-piperazinyl]propyl]-N'-tricyclo[3.3.1.1(3,7)]dec-1-ylurea] | 10 | 100 | 0.007 | – | –
4 | O=C(NCCN1CCN(c2ncccn2)CC1)NC12CC3CC(CC(C3)C1)C2 [Example 1, N-[2-[4-(2-pyrimidyl)-1-piperazinyl]ethyl]-N'-tricyclo[3.3.1.1(3,7)]dec-1-ylurea] | 15 | 91 | 0.052 | – | –
5 | Cc1nc2sccn2c(=O)c1CCN1CCC(=C(c2ccc(F)cc2)c2ccc(F)cc2)CC1 [Ritanserin] | – | – | – | – | demonstrate clinical efficacy as anxiolytic-antidepressant agents
6 | COc1ccccc1N1CCN(CCNC(=O)NC23CC4CC(CC(C4)C2)C3)CC1 [Example 2] | – | 100 | – | – | –
7 | O=C(NCCN1CCN(c2cccc(Cl)c2)CC1)NC12CC3CC(CC(C3)C1)C2 [Example 3, N-[2-[4-(3-chlorophenyl)-1-piperazinyl]ethyl]-N'-tricyclo[3.3.1.1(3,7)]dec-1-ylurea] | 56 | – | – | 54 | –

Source: patent publication US4882432A, “Polycyclic-carbamic acid piperazinoalkyl esters and amides” (American Home Products Corporation, priority 1989, dated 1989)
